Test results published in patent publication US4330557A, “Acyl-carnitine and use thereof in parenteral administration of triglycerides” (priority 1980, dated 1982).

Assay: general statement on activity and toxicity of carnitine stereoisomers and acyl-carnitine

| Structure (SMILES) | toxicity of carnitine isomer (D-isomer versus other isomer) | activity of carnitine isomer (L-isomer versus other isomer) |
| --- | --- | --- |
| C[N+](C)(C)C[C@@H](O)CC(=O)[O-] [D-carnitine] | slightly more toxic |  |
| C[N+](C)(C)C[C@H](O)CC(=O)[O-] [L-carnitine] |  | more active |
